Source: patent US20250230193A1, “CYCLIC COMPOUND HAVING SELECTIVE KRAS INHIBITORY EFFECT ON HRAS AND NRAS” (CHUGAI SEIYAKU KABUSHIKI KAISHA, priority 2022, published 2025)
Where a SMILES comes first, the peptide text is derived from it. Bridges are numbered along the chain shown (N, C = ends). [ ]: non-standard residue; d: D form. The star is where a group is joined. hPhe(3-Cl-4-CF3) = N[C@@H](CCc1ccc(C(F)(F)F)c(Cl)c1)C(=O)O; NPrPhe(4-CF3) = CCCN[C@@H](Cc1ccc(C(F)(F)F)cc1)C(=O)O; NEtPhe(4-CF3) = CCN[C@@H](Cc1ccc(C(F)(F)F)cc1)C(=O)O; hPhe(3,4-Cl2) = N[C@@H](CCc1ccc(Cl)c(Cl)c1)C(=O)O; NPrPhe(4-Me) = CCCN[C@@H](Cc1ccc(C)cc1)C(=O)O; NMeGly(cPent) = CN[C@H](C(=O)O)C1CCCC1; Pro(4,4-F2) = O=C(O)[C@@H]1CC(F)(F)CN1; Hyp = O=C(O)[C@@H]1C[C@@H](O)CN1; NMeD = CN[C@@H](CC(=O)O)C(=O)O; NMeL = CN[C@@H](CC(C)C)C(=O)O; Morpholide = C1CN(*)CCO1; NMeA = CN[C@@H](C)C(=O)O; Ac5c = NC1(C(=O)O)CCCC1; Aze = O=C(O)[C@@H]1CCN1; Abu = CC[C@H](N)C(=O)O; Ac4c = NC1(C(=O)O)CCC1; NEtG = CCNCC(=O)O; Sar = CNCC(=O)O

How the values were obtained:
[1] = target: GDP-bound HRAS wild-type protein (Homo sapiens, UniProt P01112); test: Binding to HRAS by surface plasmon resonance (SPR), Single Cycle Kinetics; conditions: SPR; for HRAS/KRAS (ratio of KD value with respect to HRAS to KD value with respect to KRAS): GDP-bound HRAS wild-type vs GDP-bound KRAS wild-type
[2] = target: GDP-bound NRAS wild-type protein (Homo sapiens, UniProt P01111); test: Binding to NRAS by surface plasmon resonance (SPR), Single Cycle Kinetics; conditions: SPR; for NRAS/KRAS (ratio of KD value with respect to NRAS to KD value with respect to KRAS): GDP-bound NRAS wild-type vs GDP-bound KRAS wild-type
Chain of GDP-bound NRAS wild-type protein (P01111 whole entry): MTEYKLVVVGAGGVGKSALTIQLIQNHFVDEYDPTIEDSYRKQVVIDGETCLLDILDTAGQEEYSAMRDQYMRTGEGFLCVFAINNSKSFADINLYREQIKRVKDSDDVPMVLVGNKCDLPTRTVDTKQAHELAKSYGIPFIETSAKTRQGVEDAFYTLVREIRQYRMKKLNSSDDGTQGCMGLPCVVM

Chain of GDP-bound HRAS wild-type protein (P01112 whole entry): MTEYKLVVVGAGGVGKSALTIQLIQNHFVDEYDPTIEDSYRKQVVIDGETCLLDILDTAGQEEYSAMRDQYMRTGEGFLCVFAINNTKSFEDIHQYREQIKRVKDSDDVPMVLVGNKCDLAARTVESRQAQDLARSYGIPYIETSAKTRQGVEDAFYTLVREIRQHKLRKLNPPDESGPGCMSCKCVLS

Structure (SMILES)	HRAS/KRAS (ratio of KD for GDP-bound HRAS wild-type to KD for KRAS) [1]	NRAS/KRAS (ratio of KD for GDP-bound NRAS wild-type to KD for KRAS) [2]	HRAS/KRAS (ratio of KD value with respect to HRAS to KD value with respect to KRAS) ([1]; KD ratio)	NRAS/KRAS (ratio of KD value with respect to NRAS to KD value with respect to KRAS) ([2]; KD ratio)	other results
CCCN1C(=O)CN(CC)C(=O)CN(C)C(=O)[C@H]([C@@H](C)CC)NC(=O)[C@H](CC(C)C)N(C)C(=O)C[C@@H](C(=O)N2CCOCC2)N(C)C(=O)[C@H](C2CCCC2)N(C)C(=O)C2(CCCC2)NC(=O)[C@@H]2CCCN2C(=O)[C@H](CCc2ccc(C(F)(F)F)c(Cl)c2)NC(=O)CN(C)C(=O)[C@@H]1Cc1ccc(C)cc1 [PP0065] ([NMeL]I[Sar][NEtG][NPrPhe(4-Me)][Sar][hPhe(3-Cl-4-CF3)]P[Ac5c][NMeGly(cPent)][NMeD]-Morpholide; lactam N-11)	C (A compound having a KD ratio of 0.1 or more and less than 3 is denoted as C)	C (A compound having a KD ratio of 0.1 or more and less than 3 is denoted as C)	–	–	–
CCO[C@@H]1C[C@H]2C(=O)NC3(CCC3)C(=O)N(C)[C@@H](C3CCCC3)C(=O)N(C)[C@H](C)CC(=O)N(C)[C@@H](CC)C(=O)N[C@@H]([C@@H](C)CC)C(=O)N(C)CC(=O)N(C)[C@H]3C/C=C\CCN(C3=O)[C@@H](Cc3ccc(C(F)(F)F)cc3)C(=O)N(C)CC(=O)N[C@@H](CCc3cc(F)c(C(F)(F)F)c(F)c3)C(=O)N2C1 [PP1095]	–	–	B (a compound having 3 or more and less than 10 is denoted as B)	B (a compound having 3 or more and less than 10 is denoted as B)	–
CCCN1C(=O)CN(C)C(=O)CN(CC)C(=O)[C@H]([C@@H](C)CC)NC(=O)[C@H](CC(C)C)N(C)C(=O)C[C@@H](C(=O)N(C)C)N(C)C(=O)[C@H](C2CCCC2)N(C)C(=O)C2(CCCC2)NC(=O)[C@@H]2CCCN2C(=O)[C@H](CCc2ccc(C(F)(F)F)c(Cl)c2)NC(=O)CN(C)C(=O)[C@@H]1Cc1ccc(C(F)(F)F)cc1 [PP0423] ([NMeL]I[NEtG][Sar][NPrPhe(4-CF3)][Sar][hPhe(3-Cl-4-CF3)]P[Ac5c][NMeGly(cPent)][NMeD]-NMe2; lactam N-11)	–	–	–	–	HRAS/KRAS (ratio of KD value with respect to GDP-bound HRAS wild-type protein to KD value with respect to KRAS) [1]: C (A compound having a KD ratio of 0.1 or more and less than 3 is denoted as C); NRAS/KRAS (ratio of KD value with respect to GDP-bound NRAS wild-type protein to KD value with respect to KRAS) [2]: B (a compound having 3 or more and less than 10 is denoted as B)
CCO[C@@H]1C[C@H]2C(=O)NC3(CCC3)C(=O)N(C)[C@@H](C3CCCC3)C(=O)N(C)[C@H](C(=O)N(C)C)CC(=O)N(C)[C@@H](CC)C(=O)N[C@@H]([C@@H](C)CC)C(=O)N(C)CC(=O)N(C)[C@H]3CCCCCN(C3=O)[C@@H](Cc3ccc(C(F)(F)F)cc3)C(=O)N(C)CC(=O)N[C@@H](CCc3ccc(C(F)(F)F)c(C)c3)C(=O)N2C1 (stereo in doubt) [PP0883]	–	–	B (a compound having 3 or more and less than 10 is denoted as B)	B (a compound having 3 or more and less than 10 is denoted as B)	–
CCO[C@@H]1C[C@H]2C(=O)NC3(CCC3)C(=O)N(C)[C@@H](C3CCCC3)C(=O)N(CC)[C@H](C(=O)N3CCOCC3)CC(=O)N(C)[C@@H](CO)C(=O)N[C@@H]([C@@H](C)CC)C(=O)N(C)CC(=O)N(C)[C@H]3CCCCCN(C3=O)[C@@H](Cc3ccc(C(F)(F)F)cc3)C(=O)N(C)CC(=O)N[C@@H](CCc3cc(F)c(C(F)(F)F)c(F)c3)C(=O)N2C1 [PP0945]	–	–	A (a compound having 10 or more and less than 20 is denoted as A)	B (a compound having 3 or more and less than 10 is denoted as B)	–
CC[C@H](C)[C@@H]1NC(=O)[C@H](CC(C)C)N(C)C(=O)C[C@@H](C(=O)N2CCOCC2)N(C)C(=O)[C@H](C2CCCC2)N(C)C(=O)C2(CCCC2)NC(=O)[C@@H]2CCCN2C(=O)[C@H](CCc2ccc(Cl)c(Cl)c2)NC(=O)CN(C)C(=O)[C@H](Cc2ccc(C(F)(F)F)cc2)N(CC)C(=O)CN(C)C(=O)CN(C)C1=O [PP0237] ([NMeL]I[Sar][Sar][NEtPhe(4-CF3)][Sar][hPhe(3,4-Cl2)]P[Ac5c][NMeGly(cPent)][NMeD]-Morpholide; lactam N-11)	C (A compound having a KD ratio of 0.1 or more and less than 3 is denoted as C)	B (a compound having 3 or more and less than 10 is denoted as B)	–	–	–
CCCN1C(=O)CN(C)C(=O)[C@@H]2CCN2C(=O)[C@H]([C@@H](C)CC)NC(=O)[C@H](CC(C)C)N(C)C(=O)C[C@@H](C(=O)N(C)C)NC(=O)[C@H](C2CCCC2)N(C)C(=O)C2(CCC2)NC(=O)[C@@H]2C[C@@H](OCC)CN2C(=O)[C@H](CCc2ccc(C(F)(F)F)c(Cl)c2)NC(=O)CN(C)C(=O)[C@@H]1Cc1ccc(C(F)(F)F)cc1 [PP0378] ([NMeL]I[Aze][Sar][NPrPhe(4-CF3)][Sar][hPhe(3-Cl-4-CF3)][Hyp](Et)[Ac4c][NMeGly(cPent)]D-NMe2; lactam N-11)	B (a compound having 3 or more and less than 10 is denoted as B)	B (a compound having 3 or more and less than 10 is denoted as B)	–	–	–
CCCN1C(=O)CN(C)C(=O)CN(CC)C(=O)[C@H](CC)NC(=O)[C@H](CC(C)C)N(C)C(=O)C[C@@H](C(=O)N2CCOCC2)N(C)C(=O)[C@H](C2CCCC2)N(C)C(=O)C2(CCCC2)NC(=O)[C@@H]2CCCN2C(=O)[C@H](CCc2ccc(C(F)(F)F)c(Cl)c2)NC(=O)CN(C)C(=O)[C@@H]1Cc1ccc(C(F)(F)F)cc1 [PP0290] ([NMeL][Abu][NEtG][Sar][NPrPhe(4-CF3)][Sar][hPhe(3-Cl-4-CF3)]P[Ac5c][NMeGly(cPent)][NMeD]-Morpholide; lactam N-11)	C (A compound having a KD ratio of 0.1 or more and less than 3 is denoted as C)	B (a compound having 3 or more and less than 10 is denoted as B)	–	–	–
CCC[C@H]1C(=O)N[C@@H]([C@@H](C)CC)C(=O)N(C)CC(=O)N(C)[C@H]2C/C=C\CCN(C2=O)[C@@H](CC2CCCCC2)C(=O)N(C)CC(=O)N[C@@H](CCc2ccc(C(F)(F)F)c(OC)c2)C(=O)N2C[C@@H](C)C[C@H]2C(=O)N(C)C2(CCC2)C(=O)N(C)[C@@H](C2CCCC2)C(=O)N(C)[C@H](C(=O)N(C)C)CC(=O)N1C [PP2370]	–	–	–	–	HRAS/KRAS (ratio of KD value with respect to HRAS to KD value with respect to KRAS) [1]: B (a compound having 3 or more and less than 10 is denoted as B); NRAS/KRAS (ratio of KD value with respect to NRAS to KD value with respect to KRAS) [2]: B (a compound having 3 or more and less than 10 is denoted as B)
CCO[C@@H]1C[C@H]2C(=O)NC3(CC(C)(C)C3)C(=O)N(C)[C@@H](C3CCCC3)C(=O)N(C)[C@H](C(=O)N3CCCCC3)CC(=O)N(C)[C@H]3CCCCCc4ccc(cc4)C[C@@H](C(=O)N(C)CC(=O)N[C@@H](CCc4ccc(C(F)(F)F)c(OC)c4)C(=O)N2C1)N1CC/C=C\C[C@@H](C1=O)N(C)C(=O)CN(C)C(=O)[C@H]([C@@H](C)CC)NC3=O [PP3036, (1S,7S,11R,13S,19S,22S,26S,29S,35S,37Z)-19-cyclopentyl-11-ethoxy-7-[2-[3-methoxy-4-(trifluoromethyl)phenyl]ethyl]-3,3′,3′,18,21,25,31,34-octamethyl-29-[(1S)-1-methylpropyl]-22-(piperidine-1-carbonyl)spiro[3,6,9,15,18,21,25,28,31,34,41-undecazapentacyclo[24.15.10.2^43,46.1^35,41.0^9,13]tetrapentaconta-37,43(53),44,46(52)-tetraene-16,1′-cyclobutane]-2,5,8,14,17,20,24,27,30,33,54-undecone]	–	–	–	–	HRAS/KRAS (ratio of KD value with respect to GDP-bound HRAS wild-type protein to KD value with respect to KRAS) ([1]; GDP-bound wild-type proteins): B (a compound having 3 or more and less than 10 is denoted as B); NRAS/KRAS (ratio of KD value with respect to GDP-bound NRAS wild-type protein to KD value with respect to KRAS) ([2]; GDP-bound wild-type proteins): A (a compound having 10 or more and less than 20 is denoted as A)
C#CC[C@H]1C(=O)N[C@@H]([C@@H](C)CC)C(=O)N(C)CC(=O)N(C)[C@H]2C/C=C\CCN(C2=O)[C@@H](Cc2ccc(C(F)(F)F)cc2)C(=O)N(C)CC(=O)N[C@@H](CCc2ccc(C(F)(F)F)c(OC)c2)C(=O)N2C[C@@H](C)C[C@H]2C(=O)NC2(CC(C)(C)C2)C(=O)N(C)[C@@H](C2CCCC2)C(=O)N(C)[C@H](C(=O)N(C)CC)CC(=O)N1C [PP2055]	–	–	–	–	HRAS/KRAS (ratio of KD value with respect to HRAS to KD value with respect to KRAS) [1]: B (a compound having 3 or more and less than 10 is denoted as B); NRAS/KRAS (ratio of KD value with respect to NRAS to KD value with respect to KRAS) [2]: A (a compound having 10 or more and less than 20 is denoted as A)
CCO[C@@H]1C[C@H]2C(=O)NC3(CCC3)C(=O)N(C)[C@@H](C3CCCC3)C(=O)N(C)[C@H](C(=O)N3CCOCC3)CC(=O)N(C)[C@@H](COC3CC3)C(=O)N[C@@H]([C@@H](C)CC)C(=O)N(C)CC(=O)N(C)[C@H]3CCCCCN(C3=O)[C@@H](Cc3ccc(C(F)(F)F)cc3)C(=O)N(C)CC(=O)N[C@@H](CCc3cc(F)c(C(F)(F)F)c(F)c3)C(=O)N2C1 [PP0852]	–	–	B (a compound having 3 or more and less than 10 is denoted as B)	B (a compound having 3 or more and less than 10 is denoted as B)	–
CCCN1C(=O)[C@@H]2CCN2C(=O)[C@H](C)N(C)C(=O)[C@H]([C@@H](C)CC)NC(=O)[C@H](CC(C)C)N(C)C(=O)C[C@@H](C(=O)N(C)C)NC(=O)[C@H](C2CCCC2)N(C)C(=O)C2(CCC2)NC(=O)[C@@H]2CC(F)(F)CN2C(=O)[C@H](CCc2ccc(C(F)(F)F)c(Cl)c2)NC(=O)CN(C)C(=O)[C@@H]1Cc1ccc(C(F)(F)F)cc1 [PP0382] ([NMeL]I[NMeA][Aze][NPrPhe(4-CF3)][Sar][hPhe(3-Cl-4-CF3)][Pro(4,4-F2)][Ac4c][NMeGly(cPent)]D-NMe2; lactam N-11)	B (a compound having 3 or more and less than 10 is denoted as B)	C (A compound having a KD ratio of 0.1 or more and less than 3 is denoted as C)	–	–	–
